Where a name gives a salt, the structure may show the parent alone.
Columns and labels:
[1] = system: complement system; conditions: reported in the literature; cited from earlier work
[2] = target: activated human C1 (Homo sapiens, UniProt P09871); experiment: Test Code 026 (C1 inhibitor); format: biochemical; conditions: serial twofold dilution assay; higher well number indicates higher activity
[3] = system: shunt pathway activated by cobra venom factor (lysis of human erythrocytes in autologous serum); experiment: Test Code 036 (C-Shunt inhibitor); format: cell-based; conditions: serial twofold dilution assay; higher well number indicates higher activity
Protocol: An active inhibitor protects C2 from C1 and C4; (ii) Test Code 036 (C-Shunt inhibitor)--In this test human erythrocytes rendered fragile are lysed in autologous serum via the shunt pathway activated by cobra venom factor in the presence of appropriate dilutions of the test compound. Inhibition of the shunt pathway results in failure of lysis; (iii) Cap 50 Test--Here, appropriate amounts of the test compound are added to a pool of guinea pig serum in vitro, after which the complement level is determined in undiluted serum by the serum capillary tube assay of U.S. Pat. No. 3,876,376. The concentration of compound inhibiting 50% is reported; and (iv) Guinea Pig Intraperitoneal Test (GPIP)--Guinea pigs weighing about 300 g are dosed intraperitoneally (i.p.) with 200 mg/kg of the test compound dissolved in saline and adjusted to pH 7-8. Approximately 0.4 ml blood samples, taken by orbital sinus puncture 30 minutes and one hour after injections, are collected directly into centrifuge tubes; 5 ml blood samples, taken by decapitation 2 hours after injection, are collected directly into diSPo® beakers. The samples were allowed to clot, centrifuged, and the resultant sera were assayed for complement activity using the capillary complement assay. Percent inhibition is calculated by comparison with simultaneous controls. […]

[4] = system: serum complement activity; experiment: Guinea Pig Intraperitoneal Test (GPIP); format: in vivo; conditions: 200 mg/kg i.p.; for In vivo Activity Guinea Pigs Intraperitoneal % Lowering, 30 minutes: blood sample 30 minutes after injection; for In vivo Activity Guinea Pigs Intraperitoneal % Lowering, 60 minutes: blood sample 60 minutes after injection; for In vivo Activity Guinea Pigs Intraperitoneal % Lowering, 120 minutes: blood sample 120 minutes after injection
Protocol: An active inhibitor protects C2 from C1 and C4; (ii) Test Code 036 (C-Shunt inhibitor)--In this test human erythrocytes rendered fragile are lysed in autologous serum via the shunt pathway activated by cobra venom factor in the presence of appropriate dilutions of the test compound. Inhibition of the shunt pathway results in failure of lysis; (iii) Cap 50 Test--Here, appropriate amounts of the test compound are added to a pool of guinea pig serum in vitro, after which the complement level is determined in undiluted serum by the serum capillary tube assay of U.S. Pat. No. 3,876,376. The concentration of compound inhibiting 50% is reported; and (iv) Guinea Pig Intraperitoneal Test (GPIP)--Guinea pigs weighing about 300 g are dosed intraperitoneally (i.p.) with 200 mg/kg of the test compound dissolved in saline and adjusted to pH 7-8. Approximately 0.4 ml blood samples, taken by orbital sinus puncture 30 minutes and one hour after injections, are collected directly into centrifuge tubes; 5 ml blood samples, taken by decapitation 2 hours after injection, are collected directly into diSPo® beakers. The samples were allowed to clot, centrifuged, and the resultant sera were assayed for complement activity using the capillary complement assay. Percent inhibition is calculated by comparison with simultaneous controls. The results of the GPIP appear in Table I together with results of Test Code 026, 036 and Cap 50.

[5] = system: human serum complement; conditions: in vitro and in vivo, judged by reduction in total hemolytic complement activity; cited from earlier work
[6] = system: hereditary angioneurotic edema; conditions: reported in the literature; cited from earlier work

heparin
anti-complementary effect [1]: anti-complementary effect

O=C(Nc1cc(S(=O)(=O)[O-])c2cc(S(=O)(=O)[O-])cc(S(=O)(=O)[O-])c2c1)Nc1cc(S(=O)(=O)[O-])c2cc(S(=O)(=O)[O-])cc(S(=O)(=O)[O-])c2c1.[Na+].[Na+].[Na+].[Na+].[Na+].[Na+] [7,7'-Ureylenedi-1,3,5-naphthalenetrisulfonic acid, hexasodium salt]
C1 026 Wells [2]: +6 Wells | C-Shunt Inhibition 036 Wells [3]: +1 Wells

O=C(Nc1ccc2c(O)cc(S(=O)(=O)O)cc2c1)Nc1ccc2c(O)cc(S(=O)(=O)O)cc2c1 [6,6'-ureylenebis(1-hydroxy-3-naphthalenesulfonic acid)]
C1 026 Wells [2]: +1 Wells

O=C(Nc1cc(S(=O)(=O)[O-])cc2ccc(S(=O)(=O)[O-])cc12)Nc1cc(S(=O)(=O)[O-])cc2ccc(S(=O)(=O)[O-])cc12.[Na+].[Na+].[Na+].[Na+] [4,4'-Ureylenedi-2,6-naphthalenedisulfonic acid, tetrasodium salt]
C1 026 Wells [2]: +2 Wells

O=C(Nc1ccc2c(S(=O)(=O)[O-])cc(S(=O)(=O)[O-])cc2c1)Nc1ccc2c(S(=O)(=O)[O-])cc(S(=O)(=O)[O-])cc2c1.[Na+].[Na+].[Na+].[Na+] [6,6'-Ureylenedi-1,3-naphthalenedisulfonic acid, tetrasodium salt]
C1 026 Wells [2]: +3 Wells

O=C(Nc1cc(S(=O)(=O)[O-])cc2cc(S(=O)(=O)[O-])ccc12)Nc1cc(S(=O)(=O)[O-])cc2cc(S(=O)(=O)[O-])ccc12.[Na+].[Na+].[Na+].[Na+] [4,4'-Ureylenedi-2,7-naphthalenedisulfonic acid, tetrasodium salt]
C1 026 Wells [2]: +3 Wells

O=C(Nc1cc(S(=O)(=O)O)cc2cc(S(=O)(=O)O)cc(OS(=O)(=O)c3ccccc3)c12)Nc1cc(S(=O)(=O)O)cc2cc(S(=O)(=O)O)cc(OS(=O)(=O)c3ccccc3)c12 [4,4'-Ureylenebis(5-hydroxy-2,7-naphthalenedisulfonic acid), tetrasodium salt dibenzenesulfonate]
C1 026 Wells [2]: +3 Wells

O=C(Nc1cc(S(=O)(=O)[O-])cc2cc(S(=O)(=O)[O-])cc(S(=O)(=O)[O-])c12)Nc1cc(S(=O)(=O)[O-])cc2cc(S(=O)(=O)[O-])cc(S(=O)(=O)[O-])c12.[Na+].[Na+].[Na+].[Na+].[Na+].[Na+] [8,8'-Ureylenedi-1,3,6-naphthalenetrisulfonic acid, hexasodium salt]
C1 026 Wells [2]: +5 Wells | In vivo Activity Guinea Pigs Intraperitoneal % Lowering, 30 minutes [4]: 25% | In vivo Activity Guinea Pigs Intraperitoneal % Lowering, 60 minutes [4]: 61% | In vivo Activity Guinea Pigs Intraperitoneal % Lowering, 120 minutes [4]: 65%

O=C(Nc1ccc(S(=O)(=O)[O-])c2ccc(S(=O)(=O)[O-])cc12)Nc1ccc(S(=O)(=O)[O-])c2ccc(S(=O)(=O)[O-])cc12.[Na+].[Na+].[Na+].[Na+] [4,4'-Ureylenedi-1,6-naphthalenedisulfonic acid, tetrasodium salt]
C1 026 Wells [2]: +3 Wells

pentosanpolysulfoester
anticomplementary activity on human serum [5]: anticomplementary activity

O=C(Nc1cc(S(=O)(=O)[O-])cc2cccc(S(=O)(=O)[O-])c12)Nc1cc(S(=O)(=O)[O-])cc2cccc(S(=O)(=O)[O-])c12.[Na+].[Na+].[Na+].[Na+] [8,8'-Ureylenedi-1,6-naphthalenedisulfonic acid, tetrasodium salt]
C1 026 Wells [2]: +3 Wells

O=S(=O)([O-])c1cc(NC(=S)Nc2cc(S(=O)(=O)[O-])cc3cc(S(=O)(=O)[O-])cc(S(=O)(=O)[O-])c23)c2c(S(=O)(=O)[O-])cc(S(=O)(=O)[O-])cc2c1.[Na+].[Na+].[Na+].[Na+].[Na+].[Na+] [8,8'-(2-Thioureylene)di-1,3,6-naphthalenetrisulfonic acid, hexasodium salt]
C1 026 Wells [2]: +5 Wells | In vivo Activity Guinea Pigs Intraperitoneal % Lowering, 30 minutes [4]: 41% | In vivo Activity Guinea Pigs Intraperitoneal % Lowering, 60 minutes [4]: 20% | In vivo Activity Guinea Pigs Intraperitoneal % Lowering, 120 minutes [4]: 42%

O=C(Nc1cc2ccc(S(=O)(=O)[O-])cc2cc1S(=O)(=O)[O-])Nc1cc2ccc(S(=O)(=O)[O-])cc2cc1S(=O)(=O)[O-].[Na+].[Na+].[Na+].[Na+] [3,3'-Ureylenedi-2,7-naphthalenedisulfonic acid, tetrasodium salt]
C1 026 Wells [2]: +3 Wells

NCCCCCC(=O)O [epsilon-aminocaproic acid]
success in the treatment of hereditary angioneurotic edema [6]: used with success

O=C(Nc1ccc(S(=O)(=O)[O-])c2ccccc12)Nc1ccc(S(=O)(=O)[O-])c2ccccc12.[Na+].[Na+] [4,4'-Ureylenedi-1-naphthalenesulfonic acid, disodium salt]
C1 026 Wells [2]: +2 Wells

O=C(Nc1cc2c(O)cc(S(=O)(=O)[O-])cc2cc1S(=O)(=O)[O-])Nc1cc2c(O)cc(S(=O)(=O)[O-])cc2cc1S(=O)(=O)[O-].[Na+].[Na+].[Na+].[Na+] [3,3'-Ureylenebis(5-hydroxy-2,7-naphthalenedisulfonic acid), tetrasodium salt]
C1 026 Wells [2]: +4 Wells | In vivo Activity Guinea Pigs Intraperitoneal % Lowering, 30 minutes [4]: 4% | In vivo Activity Guinea Pigs Intraperitoneal % Lowering, 60 minutes [4]: 1% | In vivo Activity Guinea Pigs Intraperitoneal % Lowering, 120 minutes [4]: 28%

O=C(Nc1ccc(S(=O)(=O)[O-])c2cc(S(=O)(=O)[O-])cc(S(=O)(=O)[O-])c12)Nc1ccc(S(=O)(=O)[O-])c2cc(S(=O)(=O)[O-])cc(S(=O)(=O)[O-])c12.[Na+].[Na+].[Na+].[Na+].[Na+].[Na+] [8,8'-Ureylenedi-1,3,5-naphthalenetrisulfonic acid, hexasodium salt]
In vivo Activity Guinea Pigs Intraperitoneal % Lowering, 30 minutes [4]: 92% | In vivo Activity Guinea Pigs Intraperitoneal % Lowering, 60 minutes [4]: 92% | In vivo Activity Guinea Pigs Intraperitoneal % Lowering, 120 minutes [4]: 94%

O=C(Nc1cc(S(=O)(=O)[O-])c2cc([N+](=O)[O-])cc(S(=O)(=O)[O-])c2c1)Nc1cc(S(=O)(=O)[O-])c2cc([N+](=O)[O-])cc(S(=O)(=O)[O-])c2c1.[Na+].[Na+].[Na+].[Na+] [3,3'-Ureylenebis(7-nitro-1,5-naphthalenedisulfonic acid), tetrasodium salt]
C1 026 Wells [2]: +3 Wells

O=C(Nc1ccc2cc(S(=O)(=O)O)cc(O)c2c1)Nc1ccc2cc(S(=O)(=O)O)cc(O)c2c1 [7,7'-ureylenebis(1-hydroxy-3-naphthalenesulfonic acid)]
C1 026 Wells [2]: +2 Wells

NC[C@H]1CC[C@H](C(=O)O)CC1 [tranexamic acid]
success in the treatment of hereditary angioneurotic edema [6]: used with success

Nc1ccc2cc(S(=O)(=O)[O-])cc(O)c2c1N=Nc1ccc(NC(=O)Nc2ccc(N=Nc3c(N)ccc4cc(S(=O)(=O)[O-])cc(O)c34)c(S(=O)(=O)[O-])c2)cc1S(=O)(=O)[O-].[Na+].[Na+].[Na+].[Na+] [chlorazol fast pink, 3,3'-ureylenebis[6-(2-amino-8-hydroxy-6-sulfo-1-naphthylazo)benzenesulfonic acid], tetrasodium salt]
anti-complementary effect [1]: anti-complementary effect
